From patent US20260137701A1, “CHOLESTENOIC ACID (CA) AND A SULFATED DERIVATIVE THEREOF, 3[BETA]-SULFATE-5-CHOLESTENOIC ACID (CA3S), AS ENDOGENOUS EPIGENETIC REGULATORS” (priority 2022, published 2026)

Tested on: Hep G2 cells
Assay type: in vitro ADME, human
Details: human, 24 h
Excerpt: Mitochondrial oxysterols, including cholestenoic acid (CA), 25-hydroxycholesterol (25HC), and 27-hydroxycholesterol (27HC), are potent regulators involved in important biological events such as lipid metabolism and inflammatory responses. However, their intracellular catabolic pathways have not been fully explored. In this study, we investigated the metabolic pathways of these oxysterols and their roles in the communication between hepatocytes and macrophages.

SMILES: CC(CCC[C@@H](C)[C@H]1CC[C@H]2[C@@H]3CC=C4C[C@@H](O)CC[C@]4(C)[C@H]3CC[C@]12C)C(=O)O (stereo partly drawn) [CA, 3β-hydroxy-5-cholestenoic acid]
- maximum of novel molecular ion m/z 495 (CA3S) formed from CA: 90%
